One may read the IC50 as the point on the concentration scale where inhibition reaches its midpoint. As a reminder, the melting point is the temperature, or range, at which the solid turns liquid.

Results on nine molecules are retold here after patent US20090105278A1, “Selective inhibitors of human corticosteroid syntheses” (Universitat Des Saarlandes, priority 2004, published 2009).

Where a name gives a salt, the structure may show the parent alone.

The target in one series is T1, bovine adrenal CYP11B (Bos taurus, UniProt P15150).
T1 sequence (P15150 25-503): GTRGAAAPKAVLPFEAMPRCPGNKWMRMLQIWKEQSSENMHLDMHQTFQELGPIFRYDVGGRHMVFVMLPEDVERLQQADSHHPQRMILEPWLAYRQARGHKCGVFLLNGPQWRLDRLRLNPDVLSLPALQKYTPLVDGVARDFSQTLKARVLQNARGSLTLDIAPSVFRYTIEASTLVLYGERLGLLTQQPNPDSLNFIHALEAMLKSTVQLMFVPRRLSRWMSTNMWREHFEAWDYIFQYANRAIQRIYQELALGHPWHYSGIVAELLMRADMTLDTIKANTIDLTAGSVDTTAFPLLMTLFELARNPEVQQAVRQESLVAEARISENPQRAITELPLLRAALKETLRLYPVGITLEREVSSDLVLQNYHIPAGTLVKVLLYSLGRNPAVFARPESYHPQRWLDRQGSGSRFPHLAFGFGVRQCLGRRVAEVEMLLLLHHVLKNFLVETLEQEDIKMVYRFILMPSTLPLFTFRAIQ
As to the kind of experiment: Percent inhibition of bovine CYP11B (adrenal mitochondria). The following applies: corticosterone substrate 200 μM, inhibitor 1 μM; for % Inhibition bovine bCYP11B: bovine adrenal mitochondria, 1 mg/ml protein; for inhibition at 1 µM: read-out: % Inhibition bovine bCYP11B, bovine adrenal mitochondria, 1 mg/ml protein.

In the next series the target is T2, human CYP11B1 (Homo sapiens, UniProt P15538).
T2 construct: expressed in transfected cells; host or cells: V79 MZh11B1 (Chinese hamster lung fibroblasts)
T2 sequence (P15538 25-503): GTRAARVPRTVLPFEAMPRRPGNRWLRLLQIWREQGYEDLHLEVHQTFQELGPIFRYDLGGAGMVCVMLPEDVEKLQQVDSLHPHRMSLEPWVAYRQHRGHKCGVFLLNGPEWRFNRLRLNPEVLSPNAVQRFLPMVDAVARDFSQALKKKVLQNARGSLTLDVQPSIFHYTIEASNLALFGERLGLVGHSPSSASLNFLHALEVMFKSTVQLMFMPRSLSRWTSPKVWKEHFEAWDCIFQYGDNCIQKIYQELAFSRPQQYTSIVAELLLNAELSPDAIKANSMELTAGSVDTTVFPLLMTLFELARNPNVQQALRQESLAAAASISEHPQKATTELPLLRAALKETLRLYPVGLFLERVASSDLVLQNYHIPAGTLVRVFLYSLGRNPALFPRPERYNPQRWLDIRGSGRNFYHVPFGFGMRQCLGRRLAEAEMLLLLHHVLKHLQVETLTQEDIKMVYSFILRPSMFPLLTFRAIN
As to the kind of experiment: V79 MZh 11B1 cells inhibition test. The series is classed as cell-based. The following applies: hamster fibroblasts which express human CYP11B1; deoxycorticosterone substrate 100 nM; read-out: IC50 V79 11B1 hCYP11B1. The procedure:
Both cell lines were cultured in DMEM^+ containing […] and the antibiotics penicillin and streptomycin (10%) for protection from bacterial contamination. The cells were passaged every 2-3 days after treatment with trypsin/EDTA because the doubling rate was 1-2 days depending on the number of cells. […] When there was further need, freshly thawed cells were employed.
Thereafter, the plate was stored at 37° C. and […] in a CO2 incubator. […] Controls without inhibitor were treated in the same way. The enzyme reactions were quenched by extracting the supernatant with 500 μl of EtOAc. The samples were centrifuged (10,000 g, 2 min), the solvent was removed and evaporated.
It was calculated by determining the percent inhibition for at least 3 different inhibitor concentrations, which must all be in the linear range of the sigmoidal IC50 curve (log C/% inhibition).
The calculation was effected by linear regression. The values determined were used only if they formed a straight line with a reliability of […].
The plate was developed twice with the mobile solvent chloroform:methanol:water (300:20:1). Unlabeled 11-deoxycorticosterone and corticosterone were applied as a reference for the CYP11B1 reaction. For the CYP11B2 reaction, 11-deoxycorticosterone, corticosterone, 18-hydroxycorticosterone and aldosterone were used as references. The detection of the unlabeled references was effected at 260 nm. Subsequently, imaging plates (BAS MS2340, for ^14C samples, Raytest, Straubenhardt, Germany) were exposed to the HPTLC plates for 48 h. The imaging plates were scanned with the phosphoimager system Fuji FLA 3000 (Raytest, Straubenhardt, Germany), and the steroids were quantified.

Procedure for bovine adrenal CYP11B: Bovine adrenal glands obtained freshly after slaughtering were stored in ice cold Tris-sucrose buffer (0.25 M sucrose, 0.05 M Tris; pH 7.4) until processed. After removing the appending adipose tissue, the adrenal medulla was carefully separated from the adrenal cortex using scissors. The pieces of adrenal cortex were coarsely comminuted with scissors, washed with Tris-sucrose buffer, weighed and finely comminuted in the above buffer (2 ml per g of tissue) with a hand mixer. Thereafter, the tissue was homogenized with an Ultra-Turrax mixer. For separating coarse cell debris and the nuclei, the homogenizate was centrifuged twice for 15 min at 900 g and 4° C. The supernatant was subsequently centrifuged for 35 min at 11,000 g for recovering the mitochondrial fraction. For purifying the mitochondrial fraction, the precipitate was resuspended in Tri-sucrose buffer and again centrifuged at 11,000 g for 35 min. This washing step was performed two times in total. After the last centrifugation, the pellet was resuspended in Tris-sucrose buffer containing 0.001 M EDTA and frozen at −70° C.
The substrate corticosterone was dissolved in methanol and diluted with Tris buffer to a final concentration of 200 μM. The inhibitors were also dissolved in methanol and diluted with buffer to a final concentration of 1 μM. […] Corticosterone (200 μM) was incubated with inhibitor (1 μM) and mitochondrial enzyme (0.5 mg/0.5 ml) with the addition of a regenerating system consisting of NADP^+ (1 mM), glucose-6-phosphate (7 mM) and glucose-6-Phosphate dehydrogenase (1 IU/0.5 ml). Up to 5 inhibitors per test could be incubated in duplicate. […] After preincubation for 5 minutes (30° C.; water bath), the reaction was started by adding mitochondrial suspension. […] The blind values were admixed with 250 μl of HCl before the enzyme was pipetted in. The steroids were separated off by shaking with 1 ml of ethyl acetate (10 min). After centrifugation (15,000 g, 10 min), 900 μl of the organic phase was shaken with 250 μl 1 N NaOH (10 min), and 800 μl of supernatant was again washed with 250 μl of buffer. […] 18-OH-corticosterone (retention time: 10 min) and corticosterone (retention time: 21 min) were separated. The height of the 18-OH-corticosterone peak was used for evaluation. The percent inhibition of the 18-hydroxylation of corticosterone by the inhibitors was based on the mediums of the control incubation, taking the blind values into account.

With “5-[(E)-(6-Chloro-3,4-dihydronaphth-1(2H)-ylidene)methyl]-1H-imidazolium chloride [Compound 46a]”, the “% Inhibition bovine bCYP11B” value at bovine adrenal CYP11B amounted to 66%.

“5-[(Z)-3,4-Dihydronaphth-1(2H)-ylidenemethyl]-1H-imidazolium oxalate [Compound 41b]”: at bovine adrenal CYP11B, the “% Inhibition bovine bCYP11B” value is recorded as 95%.

For “5-[(Z)-(5-Bromo-2,3-dihydro-1H-indene-1-ylidene)methyl]-1H-imidazolium oxalate [Compound 49b]”, at human CYP11B1, the concentration for half-maximal inhibition (IC50) was found to be 23.5 nM. Moreover, the “% Inhibition bovine bCYP11B” value at bovine adrenal CYP11B is 88%.

On to “5-[(Z)-(5-Chloro-2,3-dihydro-1H-indene-1-ylidene)methyl]-1H-imidazolium oxalate [Compound 48b]”, for which the “% Inhibition bovine bCYP11B” value at bovine adrenal CYP11B turned out to be 87%.

Regarding `C(=C1/CCCc2ccccc21)/c1cnc[nH]1` [Compound 41a, 5-[(E)-3,4-Dihydronaphth-1(2H)-ylidenemethyl]-1H-imidazole], the melting point was 136 to 138 °C. Also, the inhibition at 1 µM on bovine adrenal CYP11B is 40%.

`C(=C1/CCc2ccccc21)/c1cnc[nH]1` [Compound 42a, 5-[(E)-2,3-Dihydro-1H-indane-1-ylidenemethyl]-1H-imidazole]: on human CYP11B1, the IC50 is 25.9 nM. The inhibition at 1 µM on bovine adrenal CYP11B was 62%.

Consider `C(=C1\CCc2ccccc21)/c1cnc[nH]1` [Compound 42b, 5-[(Z)-2,3-Dihydro-1H-ind-1-ylidenemethyl]-1H-imidazolium oxalate], for which the IC50 at human CYP11B1 was determined as 6.1 nM. At bovine adrenal CYP11B, the “% Inhibition bovine bCYP11B” value stood at 94% and the inhibition at 1 µM is around 90%.

Consider `Cl.Clc1ccc2c(c1)CC/C2=C\c1cnc[nH]1` [Compound 48a, 5-[(E)-(5-Chloro-2,3-dihydro-1H-indene-1-ylidene)methyl]-1H-imidazolium chloride], for which the melting point was determined as 238 °C. For the same molecule, the inhibition at 1 µM on bovine adrenal CYP11B worked out at 45%.

In turn, `Brc1ccc2c(c1)CC/C2=C\c1cnc[nH]1.Cl` [Compound 49a, 5-[(E)-(5-Bromo-2,3-dihydro-1H-indene-1-ylidene)methyl]-1H-imidazolium chloride] yielded a melting point of 228 °C. Also, the inhibition at 1 µM at bovine adrenal CYP11B came to 63%.
